# “Also recorded” adds a separate entry of the source.
# Experiments:
# RXR (GAL-L-RXR) = molecular target: T1, RXR (GAL-L-RXR) (Homo sapiens, UniProt P19793); test: GAL4 chimera activation assay in CV-1 cells, UASG×4 reporter, GAL-L-RXR
# T1 sequence (P19793 203-462): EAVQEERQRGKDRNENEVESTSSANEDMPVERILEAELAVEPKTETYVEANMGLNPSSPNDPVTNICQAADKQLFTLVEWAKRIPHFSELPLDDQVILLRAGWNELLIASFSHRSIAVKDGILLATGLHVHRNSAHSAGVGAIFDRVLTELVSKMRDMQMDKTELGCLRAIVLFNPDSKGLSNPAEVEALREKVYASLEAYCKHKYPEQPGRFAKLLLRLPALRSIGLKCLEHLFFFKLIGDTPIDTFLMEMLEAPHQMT
# Excerpt: CV-1 cells were transiently transfected with a UASG×4 reporter and expression vectors for β-galactosidase and either GAL-L-RXR or the GAL-L-RXRm LBD mutant.
# Confirmation of the analytical procedure was achieved by testing FXR-RXR and FXR-RXRm dimers for activation by RXR and FXR ligands. […] This type of assay therefore can specifically discriminate between activation by RXR ligands and FXR ligands.
# FXR-RXR heterodimers [1] = molecular target: T2, FXR-RXR heterodimers (Rattus norvegicus, UniProt Q62735); test: Transient transfection activation assay in CV-1 cells, EcRE×6 reporter, FXR + RXR; type: cell-based
# T2 sequence (Q62735 1-469): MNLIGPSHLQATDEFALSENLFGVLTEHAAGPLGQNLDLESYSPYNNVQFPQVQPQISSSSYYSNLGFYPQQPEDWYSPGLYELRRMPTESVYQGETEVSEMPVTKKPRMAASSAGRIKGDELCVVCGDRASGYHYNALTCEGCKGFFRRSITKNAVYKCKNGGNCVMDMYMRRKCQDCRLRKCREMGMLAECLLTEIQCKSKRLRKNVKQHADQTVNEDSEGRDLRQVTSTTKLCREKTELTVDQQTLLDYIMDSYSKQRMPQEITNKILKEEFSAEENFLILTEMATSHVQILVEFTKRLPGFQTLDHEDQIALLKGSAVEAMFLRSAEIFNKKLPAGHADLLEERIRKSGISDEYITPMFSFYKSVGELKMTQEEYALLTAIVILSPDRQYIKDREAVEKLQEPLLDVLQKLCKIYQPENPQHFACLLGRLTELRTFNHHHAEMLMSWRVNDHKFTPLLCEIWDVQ
# T2 sequence (P19793 1-462 partner): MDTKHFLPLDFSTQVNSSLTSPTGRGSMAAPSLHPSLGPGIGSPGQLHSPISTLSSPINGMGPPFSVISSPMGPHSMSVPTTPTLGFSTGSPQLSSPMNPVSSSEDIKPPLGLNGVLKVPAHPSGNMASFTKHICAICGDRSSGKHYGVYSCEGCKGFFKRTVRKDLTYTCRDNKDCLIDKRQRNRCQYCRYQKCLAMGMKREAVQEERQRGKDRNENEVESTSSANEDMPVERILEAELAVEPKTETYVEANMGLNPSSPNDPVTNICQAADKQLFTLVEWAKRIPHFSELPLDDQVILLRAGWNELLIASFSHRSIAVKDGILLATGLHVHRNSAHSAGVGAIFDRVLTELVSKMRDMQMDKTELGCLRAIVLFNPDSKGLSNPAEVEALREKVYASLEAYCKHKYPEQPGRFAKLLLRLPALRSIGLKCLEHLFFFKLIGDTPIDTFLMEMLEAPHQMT
# Excerpt: Suitable reporter gene constructs are well known to skilled workers in the fields of biochemistry and molecular biology. Reporter/receptor pairs used in the assay reported in FIG. 1 are listed in Table I. All transfections additionally contained CMV-βgal as an internal control. Suitable constructs for use in the these studies may conveniently be cloned into pCMV. pCMV contains the cytomegalovirus promoter/enhancer followed by a bacteriophage T7 promoter for transcription in vitro. Other vectors known in the art can be used in the methods of the present invention.
# (§1) CV-1 cells for the activation assays were grown in Dulbecco's modified Eagle's medium supplemented with 10% resin charcoal-stripped fetal bovine serum, 50 U/ml penicillin G and 50 μg/ml streptomycin sulfate (DMEM-FBS) at 37° C. in 5% CO2. One day prior to transfection, cells were plated to 50-80% confluence using phenol red free DMEM-FBS.
# The cells were transiently transfected by lipofection. Reporter constructs (300 ng/10^5 cells) and cytomegalovirus-driven expression vectors (20-50 ng/10^5 cells) were added, with CMV-β-gal (500 ng/10^5 cells) as an internal control. After 2 hours, the liposomes were removed and the cells were treated for approximately 45 hours with phenol red free DMEM-FBS containing the test bile acid and other compounds.
# Any compound which is a candidate for activation of FXR may be tested by this method. […] After exposure to ligand, the cells were harvested and assayed for β-galactosidase activity (control) and activity of the specific reporter gene.
# Activity of the reporter gene can be conveniently normalized to the internal control and the data plotted as fold activation relative to untreated cells.
# (§2) A variety of commercially available bile acids (Sigma) were tested for their ability to activate known FXR-RXR (FIG. 9; left panel) and FXR-RXRm (FIG. 9, right panel).
# as §1, with “cells” for “cells for the activation assays”, “Modified” for “modified”, “resin-charcoal stripped” for “resin charcoal-stripped”, “phenol-red” for “phenol red”
# FXR-RXR heterodimers [2] = molecular target: T3, FXR-RXR heterodimers (Rattus norvegicus, UniProt Q62735); test: In vitro coactivator recruitment assay (mobility shift), FXR + RXR, GST-GRIP1; type: biochemical
# T3 sequence (Q62735 1-469): T2 sequence (Q62735 1-469)
# T3 sequence (P19793 1-462 partner): T2 sequence (P19793 1-462 partner)
# T3 sequence (Q61026 625-765 partner limits assumed): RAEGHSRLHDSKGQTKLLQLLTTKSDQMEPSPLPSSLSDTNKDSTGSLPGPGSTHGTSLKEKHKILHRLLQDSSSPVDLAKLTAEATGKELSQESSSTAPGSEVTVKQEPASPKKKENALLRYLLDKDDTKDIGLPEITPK
# FXR = molecular target: T4, FXR (Rattus norvegicus, UniProt Q62735); test: Transient transfection assay, FXR + RXR with liver bile acid transporter; type: cell-based; conditions: for EC50: with the liver bile acid transporter
# T4 sequence (Q62735 1-469): T2 sequence (Q62735 1-469)
# T4 sequence (P19793 1-462 partner): T2 sequence (P19793 1-462 partner)
# Excerpt: The liver and ileum express tissue-specific bile acid transport proteins for efficient uptake of these compounds. […] CV-1 cells therefore were co-transfected with a human liver bile acid transporter (accession L21893). Use of this transporter allows hydrophilic bile acid or bile acid-derived compounds or compounds, which due to their structural similarity to bile acid are transported by the transporter, to be tested for activation of the intracellular bile acid nuclear receptor. […] Any suitable non-specific transporter may also be used.
# After transfection, cells were treated with 100 μM concentrations of the indicated bile acid.
# In addition to the structure-activity studies, dose-response analyses were performed for some bile acid nuclear receptor ligands. For these analyses, shown in FIG. 11, CV-1 cells were transfected as above, with the liver bile acid transporter, and treated with the indicated varying concentrations of each bile acid.
# [3] = system: RXRα; PPARα, γ and δ; VDR; T3Rβ; RAR; PXR; LXRα and CARβ; test: Activation of other receptors by CDCA (data not shown)
# [4] = system: FXR derived from human, rat and mouse; test: Antagonism of CDCA activation of FXR in CV-1 cells; type: cell-based; conditions: 50 μM CDCA, 20 μM azole compound
# Procedure: The FXR receptor activation assays disclosed herein may be used not only to test compounds for activation of FXR as above, but also for compounds which antagonize FXR activation. […] See Example 7.
# CV-1 cells were grown in DMEM supplemented with 10% resin-charcoal stripped fetal bovine serum, 50 U/ml penicillin G and 50 μg/ml streptomycin sulfate at 37° C. in 5% CO2. Cells were plated to 50-80% confluence one day prior to transfection using phenol red-free DMEM-FBS. The cells were transfected by lipofection using N-[1-(2,3-dioleoyloxy)propyl]-N,N,N-ammonium methyl sulfate according to manufacture's instructions (Boehringer Mannheim). The cells were transfected with a CMV expression vector containing the FXR indicated in FIG. 16 (none, −; human, hFXR; rat, rFXR; or mouse, mFXR) and RXR. The luciferase reporter construct contained the herpesvirus thymidine kinase promoter (−105/+51) linked to six copies of the response element hsp27 EcRE. […] After exposure to the agonist and candidate antagonist compounds, cells were harvested and assayed for luciferase and β-galactosidase activity. […] Therefore, clotrimazole, Compound A and Compound B were selected from the screen as FXR receptor antagonists.
# FXR-RXRm = molecular target: T5, FXR-RXRm (Rattus norvegicus, UniProt Q62735); test: Transient transfection activation assay in CV-1 cells, FXR + RXRm; type: cell-based; conditions: 100 nM
# T5 sequence (Q62735 1-469): T2 sequence (Q62735 1-469)
# Procedure: as §2
# as §1, with “cells” for “cells for the activation assays”, “Modified” for “modified”, “resin-charcoal stripped” for “resin charcoal-stripped”, “phenol-red” for “phenol red”
# FXR + RXRm = molecular target: T6, FXR + RXRm (Rattus norvegicus, UniProt Q62735); test: In vitro coactivator recruitment assay (mobility shift), FXR + RXRm, GST-GRIP1; type: biochemical
# T6 sequence (Q62735 1-469): T2 sequence (Q62735 1-469)
# T6 sequence (Q61026 625-765 partner): T3 sequence (Q61026 625-765 partner limits assumed)
# Procedure: In vitro coactivator recruitment assays were performed by adding the ligand to a mixture of the following components: FXR, 9-cis retinoic acid receptor, a coactivator, and a labeled FXR response element (probe). A polyamino acid containing the receptor interaction domains of co-activator GRIP1 may be used as the coactivator, however any functional coactivator or coactivator complex is contemplated for use in this assay. GRIP1 was expressed in bacteria and purified for these assays. The GST-GRIP1 construct, containing the three receptor interaction domains of mouse GRIP1 (Arg 625-Lys 765, accession U39060) fused to glutathione-S-transferase, was created for bacterial expression of the GRIP1 coactivator. […] Response elements suitable for use in this assay may be any nucleic acid probe which is substantially homologous to the target DNA sequence of the bile acid nuclear receptor.
# After addition of the putative ligand to the mixture of components describe above and mixing, the mixture is incubated under conditions. […] Techniques such as, for example, thin layer chromatography, high pressure liquid chromatography, size exclusion chromatography, sedimentation, immunoseparation techniques, or any other convenient method known in the art may be used.
# To distinguish between binding through the FXR and RXR subunits, the coactivator recruitment assays were repeated substituting RXRm for RXR. […]
# [5] = bile acids 100 μM, no bile acid transporter
structure (smiles),measurement,setting,value
"C[C@H](CCC(=O)O)[C@H]1CC[C@H]2[C@@H]3[C@H](O)C[C@@H]4C[C@H](O)CC[C@]4(C)[C@H]3CC[C@]12C (single isomer, unassigned) [peak Z, chenodeoxycholic acid]",effect on RXR,"RXR (GAL-L-RXR); HPLC fractions, 25 μg/ml",no effect
"C[C@H](CCC(=O)O)[C@H]1CC[C@H]2[C@@H]3C(=O)C[C@@H]4C[C@H](O)CC[C@]4(C)[C@H]3CC[C@]12C [7-ketolithocholic acid, 5β-cholanic acid-3α-ol-7-one]",activity as FXR activator,FXR-RXR heterodimers [1]; [5],activity intermediate between CDCA and UDCA
"C[C@H](CCC(=O)O)[C@H]1CC[C@H]2[C@@H]3[C@H](O)C[C@@H]4C[C@H](O)CC[C@]4(C)[C@H]3C[C@H](O)[C@]12C [CA, cholic acid]",coactivator recruitment by FXR-RXR,FXR-RXR heterodimers [2],less effective
same,activation of FXR,"FXR; 100 μM, coexpression of the liver bile acid transporter",170 fold
same,activity as FXR activator,FXR-RXR heterodimers [1]; [5],inactive
"C[C@H](CCC(=O)O)[C@H]1CC[C@H]2[C@@H]3[C@H](O)C[C@@H]4C[C@H](O)CC[C@]4(C)[C@H]3CC[C@]12C [CDCA, chenodeoxycholic acid]",activation of GAL-L-RXR chimera,RXR (GAL-L-RXR),did not activate
same,activation of other receptors,[3],failed to activate
FC(F)(F)c1cccc(C(c2ccccc2)(c2ccccc2)n2ccnc2)c1 [Compound A],antagonism of CDCA activation of FXR,[4],displayed antagonist properties; also recorded: significant but weak activity
c1ccc(-c2cn(C(c3ccccc3)(c3ccccc3)c3ccccc3)cn2)cc1 [Compound B],antagonism of CDCA activation of FXR,[4],displayed antagonist properties; also recorded: demonstrate inhibition of FXR activation
"C[C@H](CCC(=O)O)[C@H]1CC[C@H]2[C@@H]3CC[C@@H]4C[C@H](O)CC[C@]4(C)[C@H]3C[C@H](O)[C@]12C [DCA, deoxycholic acid]",EC50,FXR,~50 µM
"COC(=O)/C=C(\C)CC/C=C(\C)CC[C@H]1OC1(C)C [JH III, juvenile hormone III]",activity as FXR activator,FXR-RXR heterodimers [1]; 50 μM,far weaker activity relative to the most efficacious bile acids
"C[C@H](CCC(=O)O)[C@H]1CC[C@H]2[C@@H]3CC[C@@H]4C[C@H](O)CC[C@]4(C)[C@H]3CC[C@]12C [LCA, lithocholic acid]",EC50,FXR,~50 µM
Cc1cc2c(cc1C1(c3ccc(C(=O)O)cn3)CC1)C(C)(C)CCC2(C)C [LG268],response of FXR-RXRm,FXR-RXRm,little or no response
Clc1ccccc1C(c1ccccc1)(c1ccccc1)n1ccnc1 [clotrimazole],antagonism of CDCA activation of FXR,[4],strongest effect; also recorded: strongly active
C[C@H](CCC(=O)NCC(=O)O)[C@H]1CC[C@H]2[C@@H]3CC[C@@H]4C[C@H](O)CC[C@]4(C)[C@H]3CC[C@]12C [glyco-LCA],coactivator recruitment by FXR-RXRm,FXR + RXRm,recruited coactivator
C[C@H](CCC(=O)O)[C@H]1CC[C@H]2[C@@H]3[C@H](O)[C@H](O)[C@@H]4C[C@H](O)CC[C@]4(C)[C@H]3CC[C@]12C [hyocholic],activity as FXR activator,FXR-RXR heterodimers [1]; [5],inactive
CC(=O)N1CCN(c2ccc(OCC3COC(Cn4ccnc4)(c4ccc(Cl)cc4Cl)O3)cc2)CC1 (stereo not shown) [ketonazole],antagonism of CDCA activation of FXR,[4],inactive
C[C@H](CCC(=O)O)[C@H]1CC[C@H]2[C@@H]3C[C@@H](O)[C@@H]4C[C@H](O)CC[C@]4(C)[C@H]3CC[C@]12C [murocholic acid],activity as FXR activator,FXR-RXR heterodimers [1]; [5],inactive
C[C@H](CCC(=O)O)[C@H]1CC[C@H]2[C@@H]3[C@H](O)[C@@H](O)[C@@H]4C[C@H](O)CC[C@]4(C)[C@H]3CC[C@]12C [α-muricholic acid],activity as FXR activator,FXR-RXR heterodimers [1]; [5],inactive

# Source: patent publication US20020132223A1, “Methods for modulating activity of the FXR nuclear receptor” (City of Hope, priority 1999, published 2002)
